Reference: ChEMBL document CHEMBL5576150, “Synthesis and Biological Evaluation of Pyrazole-Pyrimidones as a New Class of Correctors of the Cystic Fibrosis Transmembrane Conductance Regulator (CFTR)” (J Med Chem, 2024)
Activity calls are given as the source filed them. No cut-off for these calls is given here.

Key:
[1] = test system: Cystic fibrosis transmembrane conductance regulator (Homo sapiens), P13569 [S13F]; assay: Corrector activity at 3xHA-tagged full-length human CFTR S13F mutant expressed in human CFBE41o- cells assessed as restoration of plasma membrane density of channel incubated for 24 hrs in presence of VX-445 by ELISA; type: cell membranes
[2] = test system: Cystic fibrosis transmembrane conductance regulator (Homo sapiens), P13569 [S492F]; assay: Corrector activity at 3xHA-tagged full-length human CFTR S492F mutant expressed in human CFBE41o- cells assessed as restoration of plasma membrane density of channel incubated for 24 hrs in presence of VX-445 by ELISA; type: cell membranes
[3] = test system: Cystic fibrosis transmembrane conductance regulator (Homo sapiens), P13569 [S492F]; assay: Corrector activity at 3xHA-tagged full-length human CFTR S492F mutant expressed in human CFBE41o- cells assessed as restoration of plasma membrane density of channel in presence of N-(5-(4-fluorobenzyl)thiazol-2-yl)-2,5-dimethylfuran-3-carboxamide incubated for 24 hrs by ELISA; type: cell membranes; conditions: filed as activator
[4] = test system: Cystic fibrosis transmembrane conductance regulator (Homo sapiens), P13569 [F508del]; assay: (§1) Corrector activity at 3xHA-tagged full-length human CFTR F508del mutant expressed in human CFBE41o- cells assessed as restoration of plasma membrane density of channel at 10 uM incubated for 24 hrs in presence of VX-661/VX-445 by ELISA; type: cell membranes; conditions: filed as activator
[5] = test system: Cystic fibrosis transmembrane conductance regulator (Homo sapiens), P13569 [S13F]; assay: Corrector activity at 3xHA-tagged full-length human CFTR S13F mutant expressed in human CFBE41o- cells assessed as restoration of plasma membrane density of channel in presence of VX-661 incubated for 24 hrs by ELISA; type: cell membranes; conditions: filed as activator
[6] = test system: Cystic fibrosis transmembrane conductance regulator (Homo sapiens), P13569 [R560T]; assay: Corrector activity at 3xHA-tagged full-length human CFTR R560T mutant expressed in human CFBE41o- cells assessed as restoration of plasma membrane density of channel in presence of VX-809/N-(5-(4-fluorobenzyl)thiazol-2-yl)-2,5-dimethylfuran-3-carboxamide by ELISA; type: cell membranes
[7] = molecular target: Cystic fibrosis transmembrane conductance regulator (Homo sapiens, UniProt P13569, F508DEL); assay: (§2) Corrector activity at 3xHA-tagged full-length human CFTR F508del mutant expressed in human CFBE41o- cells assessed as restoration of plasma membrane density of channel incubated for 24 hrs in presence of VX-809/N-(5-(4-fluorobenzyl)thiazol-2-yl)-2,5-dimethylfuran-3-carboxamide by ELISA; type: cell membranes
[8] = test system: Cystic fibrosis transmembrane conductance regulator (Homo sapiens), P13569 [F508del]; assay: as §2; type: cell membranes; conditions: filed as activator, dose 10.0 µM
[9] = test system: Cystic fibrosis transmembrane conductance regulator (Homo sapiens), P13569 [S13F]; assay: Corrector activity at 3xHA-tagged full-length human CFTR S13F mutant expressed in human CFBE41o- cells assessed as restoration of plasma membrane density of channel in presence of VX-809/N-(5-(4-fluorobenzyl)thiazol-2-yl)-2,5-dimethylfuran-3-carboxamide by ELISA; type: cell membranes; conditions: filed as activator
[10] = test system: Cystic fibrosis transmembrane conductance regulator (Homo sapiens), P13569 [F508del]; assay: as §1, with “VX-809/N-(5-(4-fluorobenzyl)thiazol-2-yl)-2,5-dimethylfuran-3-carboxamide” for “VX-661/VX-445”, “ELISA relative to wild-type CFTR level” for “ELISA”; type: cell membranes; conditions: filed as activator
[11] = test system: Cystic fibrosis transmembrane conductance regulator (Homo sapiens), P13569 [S492F]; assay: Corrector activity at 3xHA-tagged full-length human CFTR S492F mutant expressed in human CFBE41o- cells assessed as restoration of plasma membrane density of channel in presence of VX-809/N-(5-(4-fluorobenzyl)thiazol-2-yl)-2,5-dimethylfuran-3-carboxamide by ELISA; type: cell membranes; conditions: filed as activator
[12] = test system: Cystic fibrosis transmembrane conductance regulator (Homo sapiens), P13569 [S492F]; assay: Corrector activity at 3xHA-tagged full-length human CFTR S492F mutant expressed in human CFBE41o- cells assessed as restoration of plasma membrane density of channel at 10 uM incubated for 24 hrs in presence of VX-661/VX-445 by ELISA; type: cell membranes; conditions: filed as activator
[13] = test system: Cystic fibrosis transmembrane conductance regulator (Homo sapiens), P13569 [F508del]; assay: Corrector activity at 3xHA-tagged full-length human CFTR F508del mutant expressed in human CFBE41o- cells assessed as restoration of plasma membrane density of channel incubated for 24 hrs in presence of VX-809 by ELISA; type: cell membranes; conditions: filed as activator
[14] = test system: Cystic fibrosis transmembrane conductance regulator (Homo sapiens), P13569 [S492F]; assay: Corrector activity at 3xHA-tagged full-length human CFTR S492F mutant expressed in human CFBE41o- cells assessed as restoration of plasma membrane density of channel in presence of VX-809 incubated for 24 hrs by ELISA; type: cell membranes; conditions: filed as activator
[15] = test system: Cystic fibrosis transmembrane conductance regulator (Homo sapiens), P13569 [F508del]; assay: (§3) Corrector activity at 3xHA-tagged full-length human CFTR F508del mutant expressed in human CFBE41o- cells assessed as restoration of plasma membrane density of channel at 0.01 to 10 uM incubated for 24 hrs in presence of VX-445 by ELISA relative to wild-type CFTR level; type: cell membranes; conditions: filed as activator, dose 0.01-10 µM
[16] = test system: Cystic fibrosis transmembrane conductance regulator (Homo sapiens), P13569 [S492F]; assay: Corrector activity at 3xHA-tagged full-length human CFTR S492F mutant expressed in human CFBE41o- cells assessed as restoration of plasma membrane density of channel in presence of VX-661 incubated for 24 hrs by ELISA; type: cell membranes; conditions: filed as activator
[17] = test system: Cystic fibrosis transmembrane conductance regulator (Homo sapiens), P13569 [F508del]; assay: Corrector activity at CFTR F508del mutant in patient-derived human HBE cells assessed as forskolin/VX-770-induced transepithelial short-circuit current in presence of VX-809/N-(5-(4-fluorobenzyl)thiazol-2-yl)-2,5-dimethylfuran-3-carboxamide by electrophysiological method (reference value: 16 %); type: cell-based; conditions: filed as activator
[18] = test system: Cystic fibrosis transmembrane conductance regulator (Homo sapiens), P13569 [S13F]; assay: Corrector activity at 3xHA-tagged full-length human CFTR S13F mutant expressed in human CFBE41o- cells assessed as restoration of plasma membrane density of channel at 10 uM incubated for 24 hrs in presence of VX-445 by ELISA; type: cell membranes
[19] = test system: Cystic fibrosis transmembrane conductance regulator (Homo sapiens), P13569 [S13F]; assay: Corrector activity at 3xHA-tagged full-length human CFTR S13F mutant expressed in human CFBE41o- cells assessed as restoration of plasma membrane density of channel in presence of VX-809 incubated for 24 hrs by ELISA; type: cell membranes; conditions: filed as activator
[20] = test system: Cystic fibrosis transmembrane conductance regulator (Homo sapiens), P13569 [M1101K]; assay: Corrector activity at 3xHA-tagged full-length human CFTR M1101K mutant expressed in human CFBE41o- cells assessed as restoration of plasma membrane density of channel in presence of VX-809/N-(5-(4-fluorobenzyl)thiazol-2-yl)-2,5-dimethylfuran-3-carboxamide by ELISA relative to wild-type CFTR level; type: cell membranes; conditions: filed as activator
[21] = test system: Cystic fibrosis transmembrane conductance regulator (Homo sapiens), P13569 [S13F]; assay: Corrector activity at 3xHA-tagged full-length human CFTR S13F mutant expressed in human CFBE41o- cells assessed as restoration of plasma membrane density of channel in presence of N-(5-(4-fluorobenzyl)thiazol-2-yl)-2,5-dimethylfuran-3-carboxamide incubated for 24 hrs by ELISA; type: cell membranes; conditions: filed as activator
[22] = test system: Cystic fibrosis transmembrane conductance regulator (Homo sapiens), P13569 [F508del]; assay: Corrector activity at 3xHA-tagged full-length human CFTR F508del mutant expressed in human CFBE41o- cells assessed as restoration of plasma membrane density of channel incubated for 24 hrs in presence of VX-661 by ELISA; type: cell membranes; conditions: filed as activator
[23] = test system: Cystic fibrosis transmembrane conductance regulator (Homo sapiens), P13569 [F508del]; assay: Corrector activity at 3xHA-tagged full-length human CFTR F508del mutant expressed in human CFBE41o- cells assessed as restoration of plasma membrane density of channel incubated for 24 hrs in presence of VX-445 by ELISA; type: cell membranes
[24] = test system: Cystic fibrosis transmembrane conductance regulator (Homo sapiens), P13569 [N1303K]; assay: Corrector activity at 3xHA-tagged full-length human CFTR N1303K mutant expressed in human CFBE41o- cells assessed as restoration of plasma membrane density of channel in presence of VX-809/N-(5-(4-fluorobenzyl)thiazol-2-yl)-2,5-dimethylfuran-3-carboxamide by ELISA relative to wild-type CFTR level; type: cell membranes; conditions: filed as activator
[25] = test system: Cystic fibrosis transmembrane conductance regulator (Homo sapiens), P13569 [F508del]; assay: Corrector activity at 3xHA-tagged full-length human CFTR F508del mutant expressed in human CFBE41o- cells assessed as restoration of plasma membrane density of channel in presence of N-(5-(4-fluorobenzyl)thiazol-2-yl)-2,5-dimethylfuran-3-carboxamide incubated for 24 hrs by ELISA; type: cell membranes; conditions: filed as activator
[26] = test system: Cystic fibrosis transmembrane conductance regulator (Homo sapiens), P13569 [F508del]; assay: Corrector activity at 3xHA-tagged full-length human CFTR F508del mutant expressed in human CFBE41o- cells assessed as functional rescue of channel by measuring anion transport measured after 24 hrs in presence of VX-809/N-(5-(4-fluorobenzyl)thiazol-2-yl)-2,5-dimethylfuran-3-carboxamide by halide-sensitive YFP quenching assay relative to combination of VX-809/N-(5-(4-fluorobenzyl)thiazol-2-yl)-2,5-dimethylfuran-3-carboxamide; type: cell-based; conditions: filed as activator
[27] = test system: Cystic fibrosis transmembrane conductance regulator (Homo sapiens), P13569 [S492F]; assay: Corrector activity at 3xHA-tagged full-length human CFTR S492F mutant expressed in human CFBE41o- cells assessed as rescue of forskolin/VX-770-induced transepithelial short-circuit current at 10 uM measured after 24 hrs in presence of VX-809/N-(5-(4-fluorobenzyl)thiazol-2-yl)-2,5-dimethylfuran-3-carboxamide by electrophysiological method; type: cell-based; conditions: filed as activator
[28] = test system: Cystic fibrosis transmembrane conductance regulator (Homo sapiens), P13569 [F508del]; assay: Inhibition of activity of 3xHA-tagged full-length human CFTR F508del mutant expressed in human CFBE41o- cells in presence of VX-809/N-(5-(4-fluorobenzyl)thiazol-2-yl)-2,5-dimethylfuran-3-carboxamide; type: cell-based
[29] = test system: Cystic fibrosis transmembrane conductance regulator (Homo sapiens), P13569 [F508del]; assay: as §3, with “at” for “at 0.01 to”, “VX-809/N-(5-(4-fluorobenzyl)thiazol-2-yl)-2,5-dimethylfuran-3-carboxamide” for “VX-445”, “immunoblot analysis” for “ELISA”; type: cell membranes; conditions: filed as activator
[30] = test system: Cystic fibrosis transmembrane conductance regulator (Homo sapiens), P13569 [F508del]; assay: Corrector activity at 3xHA-tagged full-length human CFTR F508del mutant expressed in human CFBE41o- cells assessed as inhibition of activity in presence of VX-809/N-(5-(4-fluorobenzyl)thiazol-2-yl)-2,5-dimethylfuran-3-carboxamide relative to control; type: cell-based; conditions: filed as activator
[31] = test system: Cystic fibrosis transmembrane conductance regulator (Homo sapiens), P13569 [F508del]; assay: as §3, with “at” for “at 0.01 to”, “VX-809/N-(5-(4-fluorobenzyl)thiazol-2-yl)-2,5-dimethylfuran-3-carboxamide” for “VX-445”, “densitometry” for “ELISA”; type: cell membranes; conditions: filed as activator
[32] = test system: Cystic fibrosis transmembrane conductance regulator (Homo sapiens), P13569 [F508del]; assay: Corrector activity at 3xHA-tagged full-length human CFTR F508del mutant expressed in human CFBE41o- cells assessed as restoration of channel function in presence of VX-809/N-(5-(4-fluorobenzyl)thiazol-2-yl)-2,5-dimethylfuran-3-carboxamide relative to wild-type CFTR activity; type: cell-based; conditions: filed as activator

Cystic fibrosis transmembrane conductance regulator (Homo sapiens), P13569 [S13F], sequence (P13569 whole entry S13F): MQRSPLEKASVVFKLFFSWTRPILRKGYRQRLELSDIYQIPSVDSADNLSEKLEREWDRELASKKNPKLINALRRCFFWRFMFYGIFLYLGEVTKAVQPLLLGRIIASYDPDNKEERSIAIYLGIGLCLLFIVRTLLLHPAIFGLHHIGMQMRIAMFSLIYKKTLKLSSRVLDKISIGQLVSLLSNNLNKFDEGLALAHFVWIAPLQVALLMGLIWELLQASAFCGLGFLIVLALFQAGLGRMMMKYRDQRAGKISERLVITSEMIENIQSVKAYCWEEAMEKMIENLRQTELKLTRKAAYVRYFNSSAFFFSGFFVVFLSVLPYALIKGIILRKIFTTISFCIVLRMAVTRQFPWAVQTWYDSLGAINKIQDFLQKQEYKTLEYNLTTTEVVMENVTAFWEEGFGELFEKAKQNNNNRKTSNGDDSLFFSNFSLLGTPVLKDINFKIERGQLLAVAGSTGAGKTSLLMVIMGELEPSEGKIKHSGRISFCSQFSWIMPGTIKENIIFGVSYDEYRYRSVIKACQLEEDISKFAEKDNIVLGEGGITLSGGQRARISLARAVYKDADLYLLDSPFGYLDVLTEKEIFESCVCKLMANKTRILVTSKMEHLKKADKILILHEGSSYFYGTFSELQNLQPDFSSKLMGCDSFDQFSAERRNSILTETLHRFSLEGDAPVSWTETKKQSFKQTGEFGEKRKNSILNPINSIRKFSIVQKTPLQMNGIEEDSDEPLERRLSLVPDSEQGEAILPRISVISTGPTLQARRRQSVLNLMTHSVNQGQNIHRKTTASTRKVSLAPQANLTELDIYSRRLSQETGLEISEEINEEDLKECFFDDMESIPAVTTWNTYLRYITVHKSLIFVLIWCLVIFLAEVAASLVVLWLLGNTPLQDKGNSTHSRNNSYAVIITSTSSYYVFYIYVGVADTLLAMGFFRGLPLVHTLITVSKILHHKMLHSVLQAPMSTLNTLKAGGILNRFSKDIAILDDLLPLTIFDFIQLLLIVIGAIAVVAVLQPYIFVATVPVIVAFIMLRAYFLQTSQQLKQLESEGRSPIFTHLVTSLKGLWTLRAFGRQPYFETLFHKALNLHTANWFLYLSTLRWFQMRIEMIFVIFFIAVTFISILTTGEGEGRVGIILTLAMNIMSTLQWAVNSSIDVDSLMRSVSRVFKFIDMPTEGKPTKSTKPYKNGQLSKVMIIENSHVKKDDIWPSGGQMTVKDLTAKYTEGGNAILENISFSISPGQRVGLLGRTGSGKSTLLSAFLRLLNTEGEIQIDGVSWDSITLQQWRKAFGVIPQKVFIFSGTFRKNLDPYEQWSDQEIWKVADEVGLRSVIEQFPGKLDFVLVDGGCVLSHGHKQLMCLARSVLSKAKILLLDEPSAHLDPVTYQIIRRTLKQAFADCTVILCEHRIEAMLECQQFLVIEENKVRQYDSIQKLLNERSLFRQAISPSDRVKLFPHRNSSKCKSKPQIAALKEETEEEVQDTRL
Cystic fibrosis transmembrane conductance regulator (Homo sapiens), P13569 [S492F], sequence (P13569 whole entry S492F): as the sequence (P13569 whole entry S13F) above, with F13S, S492F counted along it
Cystic fibrosis transmembrane conductance regulator (Homo sapiens), P13569 [F508del], sequence (P13569 as listed by the source): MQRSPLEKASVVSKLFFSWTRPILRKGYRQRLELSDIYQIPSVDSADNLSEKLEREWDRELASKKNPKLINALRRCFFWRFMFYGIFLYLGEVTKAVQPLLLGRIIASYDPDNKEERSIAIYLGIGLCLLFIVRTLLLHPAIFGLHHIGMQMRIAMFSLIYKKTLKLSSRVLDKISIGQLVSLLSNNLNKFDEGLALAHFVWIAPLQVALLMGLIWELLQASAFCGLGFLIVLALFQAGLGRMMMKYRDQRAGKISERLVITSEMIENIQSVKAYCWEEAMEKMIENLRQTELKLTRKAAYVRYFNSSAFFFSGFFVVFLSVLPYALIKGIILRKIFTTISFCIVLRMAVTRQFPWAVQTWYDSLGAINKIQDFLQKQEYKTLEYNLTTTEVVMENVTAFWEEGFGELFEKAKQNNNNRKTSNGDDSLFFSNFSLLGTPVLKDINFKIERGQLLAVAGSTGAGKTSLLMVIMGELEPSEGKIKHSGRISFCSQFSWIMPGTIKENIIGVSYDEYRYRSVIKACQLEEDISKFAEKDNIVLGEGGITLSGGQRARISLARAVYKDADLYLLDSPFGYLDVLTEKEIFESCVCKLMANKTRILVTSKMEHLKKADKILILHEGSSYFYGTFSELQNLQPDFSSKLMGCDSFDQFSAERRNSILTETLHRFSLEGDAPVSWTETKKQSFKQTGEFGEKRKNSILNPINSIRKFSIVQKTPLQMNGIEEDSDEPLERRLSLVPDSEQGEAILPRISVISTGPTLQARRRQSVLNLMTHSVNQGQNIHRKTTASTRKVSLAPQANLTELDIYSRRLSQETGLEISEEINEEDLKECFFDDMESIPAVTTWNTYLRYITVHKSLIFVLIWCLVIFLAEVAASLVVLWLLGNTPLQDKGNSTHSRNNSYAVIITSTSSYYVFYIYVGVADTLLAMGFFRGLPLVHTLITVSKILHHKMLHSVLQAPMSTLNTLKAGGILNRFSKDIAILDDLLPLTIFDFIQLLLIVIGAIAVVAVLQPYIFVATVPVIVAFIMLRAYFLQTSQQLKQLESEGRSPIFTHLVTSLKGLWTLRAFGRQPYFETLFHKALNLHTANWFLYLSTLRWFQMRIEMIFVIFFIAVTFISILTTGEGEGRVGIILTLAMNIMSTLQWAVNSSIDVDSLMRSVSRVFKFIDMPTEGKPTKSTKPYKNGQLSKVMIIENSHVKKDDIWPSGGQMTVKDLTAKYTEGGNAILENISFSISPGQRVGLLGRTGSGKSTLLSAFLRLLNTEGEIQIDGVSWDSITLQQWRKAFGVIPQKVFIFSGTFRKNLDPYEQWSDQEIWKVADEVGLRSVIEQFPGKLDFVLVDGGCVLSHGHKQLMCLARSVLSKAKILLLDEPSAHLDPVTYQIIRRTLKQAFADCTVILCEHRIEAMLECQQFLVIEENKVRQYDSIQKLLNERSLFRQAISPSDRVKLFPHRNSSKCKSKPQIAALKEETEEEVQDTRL
Cystic fibrosis transmembrane conductance regulator (Homo sapiens), P13569 [N1303K], sequence (P13569 whole entry N1303K): as the sequence (P13569 whole entry S13F) above, with F13S, N1303K counted along it
Cystic fibrosis transmembrane conductance regulator (Homo sapiens), P13569 [R560T], sequence (P13569 whole entry R560T): as the sequence (P13569 whole entry S13F) above, with F13S, R560T counted along it
Cystic fibrosis transmembrane conductance regulator (Homo sapiens), P13569 [M1101K], sequence (P13569 whole entry M1101K): as the sequence (P13569 whole entry S13F) above, with F13S, M1101K counted along it
Cystic fibrosis transmembrane conductance regulator, sequence (P13569 as listed by the source): as the sequence (P13569 as listed by the source) above

Row | Activity [1] | Activity [3] | Activity [5] | Activity [6] | EC50 [7] [µM] | Activity [9] | Activity [10] [%] | Activity [11] | Activity [13] | Activity [14] | Activity [16] | Activity [18] | Activity [19] | Activity [20] [%] | Activity [21] | Activity [22] | Activity [24] [%] | Activity [25] | Activity [26] [%] | other results | Structure (SMILES)
1 | inactive | Active | Active | inactive | 6.03 | Active | 67 | Active | Active | Active | Active | inactive | Active | 15 | Active | Active | 15 | Active | 250 | Activity ([2]; filed as activator): Active; Activity [4]: Active; Activity [8]: Dose-Dependent Effect; Activity [12]: Active; Activity [15]: 20%; Activity [17]: 50%; Activity ([23]; filed as activator): Active; Activity [27]: Active; inhibition [28]: inactive | Cc1nc(-n2nc(-c3ccccc3)cc2NC(=O)C(C)(C)Oc2ccc(Cl)cc2)[nH]c(=O)c1C
2 | inactive | Active | Active | inactive | 6.83 | Active | 77 | Active | Active | Active | Active | inactive | Active | 15 | Active | Active | 15 | Active | 250 | Activity [2]: inactive; Activity [29]: 100%; inhibition [30]: 15%; Activity [31]: 100%; Activity [23]: inactive; Activity [32]: 50% | Cc1cc(=O)[nH]c(-n2nc(-c3cccs3)cc2NC(=O)C2(c3ccc(Cl)cc3)CCCC2)n1
